Results on 17 molecules are retold here after patent US7423181B2, “Aminoalkoxy-functional chalcones” (Lica Pharmaceuticals A/S, priority 2002, dated 2008).

In data set [1] the test system is Staphylococcus aureus ATCC29213. The experiment in a line: MIC determination in broth microdilution assay.
The subject of data set [2] is Staphylococcus aureus ATCC33591(resistant to methicillin). The experiment in a line: MIC determination in broth microdilution assay.
The test system of data set [3] is Enterococcus faecalis ATCC29212. The data set can be described thus: MIC determination in broth microdilution assay. (In general: In broth dilution the organism is exposed to a series of concentrations in liquid medium.)
Data set [4] relates to Enterococcus faecium #17501 (vancomycin-resistant clinical isolate). The data set can be described thus: MIC determination in broth microdilution assay.
The subject of data set [5] is Streptococcus pneumoniae #998 (clinical isolate). The data set can be described thus: MIC determination in broth microdilution assay.
In the next data set the test system is Eschericia coli ESS. The data set can be described thus: MIC determination in broth microdilution assay.
Data set [6] relates to Eschericia coli ATCC25922. The data set can be described thus: MIC determination in broth microdilution assay. The settings on record: for MIC: G: Eschericia coli ATCC25922.
In data set [7] the test system is Plasmodium falciparum 3D7. The experiment in a line: Plasmodium falciparum assay. The class given is cell-based. The settings on record: Plasmodium falciparum 3D7 (Table 2); read-out: IC50.
A further data set concerns L. major promastigotes. The experiment in a line: Leishmania promastigote assay. The settings on record: L. major.
Data set [8] is described as follows: Determination of metabolic stability (liver microsomes). The class given is in vitro ADME. The settings on record: rat liver microsomes, 20 μM, 15 min. On the procedure:
Determination of Metabolic Stability
Incubations were performed with Wistar rat liver microsomes (0.25 mg/ml) in 2% sodium bicarbonate solution. NADP (0.13 mg/ml), glucose-6-phosphate (0.63 mg/ml) and glucose-6-phosphate dehydrogenase (0.38 units/ml) were used as NADPH generation system and UDPGA (0.48 mg/ml) was added to include the phase II reaction, glucuronic acid conjugation, in the assay. After 5 minutes of pre-incubation the reaction was started by addition of the test article to give a final concentration of 20 μM. Samples were incubated for 15 min at 37° C. and the reactions were terminated by addition of equal volumes of acetonitrile. Blank incubations were performed at the same concentration but without addition of microsomes. Both blank and microsome-containing samples were made in replicats of three. Prior to analysis samples were centrifuged for 10 min. at 3500 rpm,HPLC system:
Initial conditions were 40% mobile phase A (acetonitrile) and 60% mobile phase B (10 mM ammonium acetate pH 9.5). During the first 20 minutes, the mobile phase was changed via a linear gradient to 90% A and 10% B. This was followed by a 5 minutes linear gradient to initial conditions, which were maintained for 5 min. The flow rate was 0.20 m)/min and injection volume 10 μl.
On the technique in general: Microsomes from liver hold many membrane-bound enzymes, among them those of drug oxidation.

For data set [9], the system named is panel of 10 different non-fastidious bacteria. The experiment in a line: Screening against panel of non-fastidious bacteria. Particulars: Gram-positive pathogens.
Setting [10] is: A: Staphylococcus aureus ATCC29213.
[11] abbreviates: B: Staphylococcus aureus ATCC33591(resistant to methicillin).
Where [12] appears, read: D: Enterococcus faecalis ATCC29212.
Setting [13] is: E: Enterococcus faecium #17501 (vancomycin-resistant).
[14] abbreviates: F: Streptococcus pneumoniae #998.

≈ marks a conversion by molar mass, not a printed value. Where two headings read alike, the source gives them in different places.

What is called MIC is the lowest concentration found to suppress growth. The low end stands for greater potency, the high end for weaker potency. In the case of `Cc1cc(C)cc(-c2ccc(OCCN(C)C)c(CCC(=O)c3ccc(F)cc3)c2)c1` [Compound C072, 3-[4-(2-Dimethylamino-ethoxy)-3′,5′-dimethyl-biphenyl-3-yl]-1-(4-fluoro-phenyl)-propan-1-one], the MIC is 9.4 µM (≈ 3.94 µg/mL) in [1] (Staphylococcus aureus, ATCC29213); 18.8 µM (≈ 7.89 µg/mL) in data set [2] (Staphylococcus aureus, ATCC33591); 18.8 µM (≈ 7.89 µg/mL) in [3] (Enterococcus faecalis, ATCC29212); 18.8 µM (≈ 7.89 µg/mL) in data set [4] (Enterococcus faecium); 37.5 µM (≈ 15.7 µg/mL) in data set [5] (Streptococcus pneumoniae); 9.4 µM (≈ 3.94 µg/mL) in the data set with Eschericia coli ESS.
Regarding `Cc1cc(C)cc(-c2ccc(OCCN(C)C)c(/C=C/C(=O)c3ccc(OCCN(C)C)cc3F)c2)c1` [Compound C157, (E)-3-[4-(2-Dimethylamino-ethoxy)-3′,5′-dimethyl-biphenyl-3-yl]-1-[4-(2-dimethylamino-ethoxy)-2-fluoro-phenyl]-propenone], the minimum inhibitory concentration (MIC) in data set [1] (setting [10]) worked out at 4.7 µM (≈ 2.37 µg/mL); in data set [2] (setting [11]), 9.4 µM (≈ 4.74 µg/mL); in data set [3] (setting [12]), 9.4 µM (≈ 4.74 µg/mL); in data set [4] (setting [13]) it was 9.4 µM (≈ 4.74 µg/mL); in data set [5] (setting [14]), 9.4 µM (≈ 4.74 µg/mL); in data set [6], 18.8 µM (≈ 9.49 µg/mL). The MIC in the data set on Eschericia coli ESS (H: Eschericia coli ESS) was 4.7 µM (≈ 2.37 µg/mL).
As to `Cc1cc(C)cc(-c2ccc(OCCN(C)C)c(/C=C/C(=O)c3ccccc3N)c2)c1` [Compound C093, (E)-1-(2-Amino-phenyl)-3-[4-(2-dimethylamino-ethoxy)-3′,5′-dimethyl-biphenyl-3-yl]-propenone], the MIC turned out to be 4.7 µM (≈ 1.95 µg/mL) in data set [1] (setting [10]); 4.7 µM (≈ 1.95 µg/mL) in [2] (setting [11]); 9.4 µM (≈ 3.9 µg/mL) in data set [3] (setting [12]); 4.7 µM (≈ 1.95 µg/mL) in data set [4] (setting [13]); 18.8 µM (≈ 7.79 µg/mL) in data set [5] (setting [14]); 4.7 µM (≈ 1.95 µg/mL) in the data set with Eschericia coli ESS (H: Eschericia coli ESS).
With `Cc1cc(C)cc(-c2ccc(OCCN(C)C)c(/C=C/C(=O)c3cccc(N4CCN(C)CC4)c3)c2)c1` [Compound C103, (E)-3-[4-(2-Dimethylamino-ethoxy)-3′,5′-dimethyl-biphenyl-3-yl]-1-[3-(4-methyl-piperazin-1-yl)-phenyl]-propenone], the MIC in [1] (setting [10]) worked out at 4.7 µM (≈ 2.34 µg/mL); in data set [2] (setting [11]), 4.7 µM (≈ 2.34 µg/mL); in data set [3] (setting [12]) it was 9.4 µM (≈ 4.68 µg/mL); in data set [4] (setting [13]) it was 9.4 µM (≈ 4.68 µg/mL); in data set [6], 18.8 µM (≈ 9.36 µg/mL); in the data set on Eschericia coli ESS (H: Eschericia coli ESS) it was 4.7 µM (≈ 2.34 µg/mL). Further, the “activity against E coli ATCC25922” value in data set [6] is “high activity”. In addition, the “activity against ESS strain of E.coli” value in the data set on Eschericia coli ESS is on record as “high activity”.
The IC50 is the concentration needed to halve the response being measured. Consider `Cc1cc(C)cc(-c2ccc(OCCN(C)C)c(/C=C/C(=O)c3ccc(O)cc3F)c2)c1` [Compound C156, (E)-3-[4-(2-Dimethylamino-ethoxy)-3′,5′-dimethyl-biphenyl-3-yl]-1-(2-fluoro-4-hydroxy-phenyl)-propenone], for which the half-maximal inhibitory concentration (IC50) in data set [7] came out at 100 nM.
Turning to `COc1ccc(C(=O)/C=C/c2cc(-c3ccccc3)ccc2OCCN(C)C)c(F)c1` [Compound C011, (E)-3-[4-(2-Dimethylamino-ethoxy)-biphenyl-3-yl]-1-(2-fluoro-4-methoxy-phenyl)-propenone], in the data set with L. major promastigotes, the IC50 came out at 100 nM.
Regarding `CN(C)CCCOc1cccc(/C=C/C(=O)c2ccccc2CN(C)C)c1` [Compound C071, (E)-1-(2-Dimethylaminomethyl-phenyl)-3-[3-(3-dimethylamino-propoxy)-phenyl]-propenone], the “Metabolic turn-over in vitro” value in [8] stood at 3%.
Take `CN(C)CCOc1ccc(-c2ccccc2O)cc1/C=C/C(=O)c1ccccc1CN(C)C` [Compound C131, (E)-3-[4-(2-Dimethylamino-ethoxy)-2′-hydroxy-biphenyl-3-yl]-1-(2-dimethylaminomethyl-phenyl)-propenone]: the concentration for half-maximal inhibition (IC50) in data set [7] turned out to be 300 nM.
In the case of `Cc1cc(C)cc(-c2ccc(OCCN(C)C)c(/C=C/C(=O)c3ccccc3OC(C)C)c2)c1` [Compound C067, (E)-3-[4-(2-Dimethylamino-ethoxy)-3′,5′-dimethyl-biphenyl-3-yl]-1(2-isopropoxy-phenyl)-propenone], the MIC in [1] (setting [10]) is 4.7 µM (≈ 2.15 µg/mL); in data set [2] (setting [11]) it was 4.7 µM (≈ 2.15 µg/mL); in data set [3] (setting [12]), 4.7 µM (≈ 2.15 µg/mL); in data set [4] (setting [13]), 4.7 µM (≈ 2.15 µg/mL); in data set [5] (setting [14]), 18.8 µM (≈ 8.6 µg/mL); with Eschericia coli ESS (H: Eschericia coli ESS), 18.8 µM (≈ 8.6 µg/mL).
Regarding `Cc1cc(C)cc(-c2ccc(OCCN(C)C)c(/C=C/C(=O)c3ccc(O)c(F)c3)c2)c1` [Compound C140, (E)-3-[4-(2-Dimethylamino-ethoxy)-3′,5′-dimethyl-biphenyl-3-yl]-1-(3-fluoro-4-hydroxy-phenyl)-propenone], the IC50 with L. major promastigotes amounted to 200 nM.
Take `Cc1cc(C)cc(-c2ccc(OCCN(C)C)c(/C=C/C(=O)c3ccccc3OCCCN(C)C)c2)c1` [Compound C104, (E)-3-[4-(2-Dimethylamino-ethoxy)-3′,5′-dimethyl-biphenyl-3-yl]-1-[2-(3-dimethylamino-propoxy)-phenyl]-propenone]: the minimal inhibitory concentration (MIC) in [1] (setting [10]) was 9.4 µM (≈ 4.71 µg/mL); in [2] (setting [11]) it was 18.8 µM (≈ 9.41 µg/mL); in data set [3] (setting [12]) it was 9.4 µM (≈ 4.71 µg/mL); in data set [4] (setting [13]), 9.4 µM (≈ 4.71 µg/mL); in [5] (setting [14]) it was 9.4 µM (≈ 4.71 µg/mL); in [6], 18.8 µM (≈ 9.41 µg/mL). The MIC in the data set on Eschericia coli ESS (H: Eschericia coli ESS) stood at 9.4 µM (≈ 4.71 µg/mL).
As for `CCCc1cc(/C=C/C(=O)c2ccc(OC)cc2F)c(OCCN(C)C)cc1O` [Compound C039, (E)-3-[2-(2-Dimethylamino-ethoxy)-4-hydroxy-5-propyl-phenyl]-1-(2-fluoro-4-methoxy-phenyl)-propenone], the minimum inhibitory concentration (MIC) in data set [1] (setting [10]) was 9.4 µM (≈ 3.77 µg/mL); in data set [2] (setting [11]), 18.8 µM (≈ 7.55 µg/mL); in [3] (setting [12]), 18.8 µM (≈ 7.55 µg/mL); in data set [4] (setting [13]), 18.8 µM (≈ 7.55 µg/mL); in data set [5] (setting [14]), 18.8 µM (≈ 7.55 µg/mL); in data set [6], 75.0 µM (≈ 30.1 µg/mL). In addition, the minimal inhibitory concentration (MIC) in the data set with Eschericia coli ESS (H: Eschericia coli ESS) was 9.4 µM (≈ 3.77 µg/mL).
As for `COc1ccc(C(=O)/C=C/c2cc(C(C)(C)C)ccc2OCCN(C)C)c(F)c1` [Compound C004, (E)-3-[5-tert-Butyl-2-(2-dimethylamino-ethoxy)-phenyl]-1-(2-fluoro-4-methoxy-phenyl)-propenone], the MIC in data set [1] (setting [10]) came out at 9.4 µM (≈ 3.76 µg/mL); in data set [2] (setting [11]) it was 9.4 µM (≈ 3.76 µg/mL); in data set [3] (setting [12]), 18.8 µM (≈ 7.51 µg/mL); in data set [4] (setting [13]), 18.8 µM (≈ 7.51 µg/mL); in [5] (setting [14]), 18.8 µM (≈ 7.51 µg/mL); in data set [6], 75.0 µM (≈ 30 µg/mL). Besides, the MIC in the data set on Eschericia coli ESS (H: Eschericia coli ESS) was found to be 9.4 µM (≈ 3.76 µg/mL). Besides, the “potency against Gram-positive pathogens in comparison with Licochalcone A” value in data set [9] is recorded as “increased potency”.
As to `COc1ccc(C(=O)/C=C/c2cc(-c3cc(C)cc(C)c3)ccc2OCCN(C)C)c(CN(C)C)c1` [Compound C092, (E)-3-[4-(2-Dimethylamino-ethoxy)-3′,5′-dimethyl-biphenyl-3-yl]-1-(2-dimethylaminomethyl-4-methoxy-phenyl)-propenone], in data set [8], the “Metabolic turn-over in vitro” value worked out at 4%. The minimum inhibitory concentration (MIC) in [1] (setting [10]) came to 4.7 µM (≈ 2.29 µg/mL); in data set [2] (setting [11]), 9.4 µM (≈ 4.57 µg/mL); in data set [3] (setting [12]) it was 4.7 µM (≈ 2.29 µg/mL); in [4] (setting [13]), 4.7 µM (≈ 2.29 µg/mL); in [5] (setting [14]), 4.7 µM (≈ 2.29 µg/mL); in [6], 75 µM (≈ 36.5 µg/mL). Also, the MIC against Eschericia coli ESS (H: Eschericia coli ESS) came out at 4.7 µM (≈ 2.29 µg/mL).
Turning to `Cc1cc(C)cc(-c2ccc(OCCN(C)C)c(/C=C/C(=O)c3cccc(O)c3)c2)c1` [Compound C085, (E)-3-[4-(2-Dimethylamino-ethoxy)-3′,5′-dimethyl-biphenyl-3-yl]-1-(3-hydroxy-phenyl)-propenone], the minimum inhibitory concentration (MIC) in [1] (setting [10]) was 4.7 µM (≈ 1.95 µg/mL); in data set [2] (setting [11]), 4.7 µM (≈ 1.95 µg/mL); in [3] (setting [12]), 4.7 µM (≈ 1.95 µg/mL); in data set [4] (setting [13]) it was 4.7 µM (≈ 1.95 µg/mL); in data set [5] (setting [14]), 75 µM (≈ 31.2 µg/mL); against Eschericia coli ESS (H: Eschericia coli ESS) it was 4.7 µM (≈ 1.95 µg/mL).
Take `Cc1ccccc1-c1ccc(OCCN(C)C)c(/C=C/C(=O)c2ccccc2CN2CCN(C)CC2)c1` [Compound C032, (E)-3-[4-(2-Dimethylamino-ethoxy)-2′-methyl-biphenyl-3-yl]-1-[2-(4-methyl-piperazin-1-ylmethyl)-phenyl]-propenone]: the IC50 in data set [7] was determined as 500 nM; in the data set on L. major promastigotes, 700 nM.
For the molecule `COc1ccc(C(=O)/C=C/c2cc(-c3cc(C)cc(C)c3)ccc2OCCN(C)C)cc1CN(C)C` [Compound C090, (E)-3-[4-(2-Dimethylamino-ethoxy)-3′,5′-dimethyl-biphenyl-3-yl]-1-(3-dimethylaminomethyl-4-methoxy-phenyl)-propenone], the IC50 in data set [7] turned out to be 500 nM.
